This is an account of results in patent US11186618B2, “Dendritic-cell-targeted peptide, fusion peptide utilizing said peptide, and vaccine utilizing said fusion peptide” (The Research Foundation for Microbial Diseases of Osaka …, priority 2016, dated 2021).

The subject of test [1] is NeutrAvidin-specific antibody. The test can be described thus: NeutrAvidin-specific antibody titer in sera of mice given biotinylated peptide/NeutrAvidin complex, ELISA (Test Example 12). The format is in vivo, mouse. The settings on record: 5 μg as NeutrAvidin, base of tail Day 0 and Day 10, serum Day 17, IgG. From the text:
A biotinylated peptide was synthesized by linking the N-terminus of each of FL4 identified in Test Example 1, a peptide Mut 1 (amino acid sequence: ASYKAIR (SEQ ID NO: 2)) derived from FL4 of which the 1st amino acid residue was substituted by an alanine residue, a peptide Mut 2 (amino acid sequence: VAYKAIR (SEQ ID NO: 3)) derived from FL4 of which the 2nd amino acid residue was substituted by an alanine residue, a peptide Mut 3 (amino acid sequence: VSAKAIR, SEQ ID NO: 43) derived from FL4 of which the 3rd amino acid residue was substituted by an alanine residue, and a peptide Mut 4 (amino acid sequence: VSYKAAR, SEQ ID NO: 44) derived from FL4 of which the […] amino acid residue was substituted by an alanine residue to biotin. Subsequently, a biotinylated peptide/NeutrAvidin complex was produced by mixing each of the obtained biotinylated peptides and NeutrAvidin.
50 μL of physiological saline containing 5 μg of the complex or NeutrAvidin in terms of NeutrAvidin amount was administered into the base of the tail of each 7-week old C57BL/6 mouse on Day 0 and Day 10, and blood was collected on Day 17. As a control, a test was also carried out in the case where only physiological saline was administered in the same manner Meanwhile, in these tests, five mice in each group were used.
Sera were obtained from the blood collected on Day 17 and NeutrAvidin-specific antibody titer (IgG) in the sera was measured by ELISA. In FIG. 18, “NA” refers to the case of administration of NeutrAvidin, and “NA-FL4” refers to the case of administration of the biotinylated FL4/NeutrAvidin complex. Other peptides are shown in the same display format. Further, in FIG. 18, “cont” refers to the case where physiological saline was administered.
In general terms: ELISA stands for enzyme-linked immunosorbent assay.

For test [2], the system named is mouse-derived dendritic cells (FL-DCs). The test can be described thus: Binding of phage clones to mouse-derived dendritic cells by flow cytometric analysis (Test Example 1). Format: cell-based. The settings on record: phage clone displaying the peptide, 1.6×10^10 pfu/mL, 1×10^5 mouse-derived dendritic cells, flow cytometry with antibody against the phage. On the procedure:
Meanwhile, in the following test examples, unless otherwise indicated, as mouse-derived dendritic cells, dendritic cells (FL-DCs) that were obtained by culturing murine bone marrow cells in the presence of Flt3-L (final concentration 100 ng/ml) for 1 week to induce differentiation were used. In addition, in the following test examples, FL-DCs were analyzed in some cases separately for Plasmacytoid DCs (pDCs), CD11b positive dendritic cells (CD11b^+ DCs), and CD11b negative dendritic cells (CD11b^− DCs). Among the mouse-derived dendritic cells, pDCs is a group of CD11c positive and B220 positive cells; CD11b^+ DCs is a group of CD11c positive, B220 negative and CD11b positive cells among mouse-derived dendritic cells; CD11b^− DCs is a group of CD11c positive, B220 negative, and CD11b negative cells among mouse-derived dendritic cells.
Each of phages recovered by three panning operations was monocloned and amplified. 1×10^5 mouse-derived dendritic cells and 1.6×10^10 pfu/mL of each phage clone were mixed, and then the phage was assayed for the binding to dendritic cells by flow cytometric analysis using an antibody against the phage.
About 60 phage clones obtained were subjected to flow cytometric analysis as described above. As a result, 37 clones shown in Table 1 were identified as clones capable of binding to dendritic cells. […]

For test [3], the system named is dendritic cells contained in splenocytes. The experiment in a line: Binding of phage clones to dendritic cells contained in splenocytes, flow cytometry (Test Example 6). The format is cell-based, mouse. The settings on record: phage clone 1.6×10^10 pfu/mL, 1×10^5 splenocytes. On the procedure:
(§1) Specifically, 1×10^5 splenocytes collected from mice and 1.6×10^10 pfu/mL of each phage clone were mixed, and the biotinylated antibody to the phage was added. Further, streptavidin modified with a fluorescent dye was added, and the binding of the phage to splenocytes was evaluated by flow cytometric analysis.
(In general: A flow cytometer gives signals particle by particle.)

The subject of test [4] is CD4^+ T cells contained in splenocytes. The test can be described thus: Binding of phage clones to CD4+ T cells contained in splenocytes, flow cytometry (Test Example 6). Format: cell-based, mouse. The settings on record: phage clone 1.6×10^10 pfu/mL, 1×10^5 splenocytes. The method, then: as §1
Test [5] deals with antigen-specific CD8^+ CTLs. The test can be described thus: Tetramer assay on regional lymph nodes, CD8+ CTL inducibility (Test Example 8). The format is in vivo, mouse. The note with it: co-administered with CpG oligodeoxynucleotide, 50 μg in terms of SL8 subcutaneously into the ears Day 0, lymph nodes Day 7. On the procedure:
A fusion peptide (SL8-FL4) was prepared by linking the N-terminus of the peptide consisting of the amino acid sequence of FL4 to the C-terminus of SL8 (SIINFEKL; SEQ ID NO: 40) which is an MHC class I epitope peptide in chicken ovalbumin (OVA). Specifically, the amino acid sequence of the fusion peptide is [Amino acid sequence of SL8 (SIINFEKL; SEQ ID NO: 40)]-[VSYKAIR; SEQ ID NO: 1]. The production method of the fusion peptide was the same as that of PspA-FL4 except that a DNA molecule encoding SL8 was used. In addition, each of peptide-fusion bodies (SL8-F8 and SL8-FL4Scr) in which the peptide was fused with SL8 was prepared using each of FL8 and the scramble peptide of FL4 (FL4Scr, amino acid sequence: YRSIVKA, SEQ ID NO: 41) in the same manner. […]
The tetramer assay was carried out as follows. Lymphocytes were recovered from the regional lymph nodes, were stained with fluorescently labeled antibodies against CD44 and CD8 and a fluorescently labeled tetramer recognizing the SL8 peptide presented on H-2K^b, then were analyzed using a flow cytometer.

For a further test, the system named is EG7 cells. The test can be described thus: Tumor size in mice transplanted with EG7 cells (Test Example 9). The settings on record: EG7 tumor bearing C57BL/6 mice, 50 μg as SL8 with 50 μg CpG oligodeoxynucleotide subcutaneously into the ears, compared with physiological saline. Format: in vivo, mouse. The method, then:
In this test, whether the regression effect of cancer was observed by SL8-specific CD8^+ CTLs induced by SL8-FL4 was evaluated. In this test, EG7 cells (cancer cells expressing OVA protein in EL4 cells derived from thymoma of C57BL/6 mouse) were used as cancer cells. Specific test methods are as follows.
1 (10^6 EG7 cells were transplanted into the abdomen of 7-week old C57BL/6 mice to prepare tumor bearing mice. 50 μL of physiological saline containing 50 μg of SL8-FL4 in terms of SL8 amount and 50 μg of CpG oligodeoxynucleotide (K3 type, product name “K3 Et-Free”, product number “CN-65003” manufactured by GeneDesign Inc.) was administered subcutaneously into the ears of mice after EG7 cells were transplanted and the tumor diameter reached about 5 mm (about 5 days after transplantation). Thereafter, tumor size was measured over time while breeding the mice. In addition, similar tests were carried out with regard to the case where 50 μL of physiological saline containing 50 μg SL8 and 50 μg of CpG oligodeoxynucleotide was administered, and the case where only physiological saline was administered (control). Meanwhile, in these tests, five mice in each group were used.

The next test concerns PspA-specific antibodies. The test can be described thus: PspA-specific antibody titer in sera of mice given fusion peptide, ELISA (Test Example 2). The format is in vivo, mouse. The note with it: C57BL/6 mice. On the procedure:
50 μL of physiological saline containing 1 μg of the fusion peptide or PspA in terms of PspA amount was administered into the base of the tail of each of 7-week old C57BL/6J JmsSlc mice (hereinafter sometimes abbreviated as C57BL/6 mice) on Day 0 and Day 10, and blood was collected on Day 17. As a control, a test was also carried out in the case where only physiological saline was administered in the same manner. Further, a test was also carried out in the case where 50 μL of physiological saline containing 10 μg of CpG oligodeoxynucleotide (K3 type, product name “K3 Et-Free”, product number “CN-65003” manufactured by GeneDesign Inc.) in addition to 1 μg of the fusion peptide or PspA in terms of PspA amount was administered in the same manner Meanwhile, in these tests, five mice in each group were used.
Sera were obtained from the blood collected on Day 17 and PspA-specific antibody titers (IgG, IgG1, and IgG2a) in the sera were measured by ELISA. In FIGS. 3 to 5, “PspA WT” refers to PspA, “PspA-FL4” refers to the fusion peptide in which the N-terminus of a peptide obtained by binding three amino acid sequences of FL4 directly and tandemly was linked to the C-terminus of PspA, “PspA WT+CpG” refers to the case where PspA and CpG oligodeoxynucleotide were administered. In addition, in FIGS. 3 to 5, the same meaning applies to the same display format as “PspA-FL4” and “PspA WT+CpG”. […]

A further test concerns Streptococcus pneumoniae. The experiment in a line: Streptococcus pneumoniae challenge of mice immunized with fusion peptide (Test Example 3). Format: in vivo. The method, then:
The following test was carried out by using a fusion peptide (FL4-PspA, amino acid sequence: [Amino acid sequence of PspA]-[VSYKAIR; SEQ ID NO: 1]-[VSYKAIR; SEQ ID NO: 1]-[VSYKAIR; SEQ ID NO: 1]) that was prepared in Test Example 2, by linking the N-terminus of a peptide obtained by binding three amino acid sequences of FL4 directly and tandemly to the C-terminus of PspA.
Immunity induction was carried out by administering 50 μL of physiological saline containing 1 μg of FL4-PspA or PspA in terms of PspA amount into the base of the tail of each of 7-week old C57BL/6 mice on Day 0 and Day 10. Then, intranasal administration (one of the nostrils of 15 μL) of Streptococcus pneumoniae (1.7×10^9 cfu/ml: […]) was performed on Day 18, and the body weight and survival rate of each mouse after Streptococcus pneumoniae administration were determined. In addition, as a control, a test was also carried out in the case where only physiological saline was administered in the same manner without conducting immunization. Further, a test was also carried out in the case where 50 μL of physiological saline containing 10 μg of CpG oligodeoxynucleotide (K3 type, product name “K3 Et-Free”, product number “CN-65003” manufactured by GeneDesign Inc.) in addition to 1 μg of FL4-PspA or PspA in terms of PspA amount was administered in the same manner Meanwhile, in these tests, five mice in each group were used.
Meanwhile, in FIG. 6, the day on which Streptococcus pneumoniae was administered is shown as Day 0. In addition, the meanings of the abbreviations in FIG. 6 are as indicated in the column of Test Example 2 above.

“ASYKAIR (Amino acid sequence of motif sequence) [Mut 1]”: the NeutrAvidin-specific antibody production result in test [1] is recorded as “excellent production ability”.

As to “GGSKPVR (phage display; displayed peptide) [FL8]”, the “binding of phage clone to dendritic cells” value in test [2] was “binding to bone marrow-derived dendritic cells was confirmed”. Also, the “binding of phage clone to dendritic cells contained in splenocytes” value in test [3] was “bind to all dendritic cells contained in splenocytes”. Moreover, the “binding of phage clone to CD4+ T cells contained in splenocytes” value in test [4] was “also bound to CD4^+ T cells contained in splenocytes”.

For the substance SIINFEKL [SL8, reference compound], the “induction of antigen-specific CD8+ CTLs (tetramer assay, regional lymph nodes)” value in test [5] is given as “could not be induced”. Further, the tumor regression effects entry in the test with EG7 cells is given as “some tumor regression effects”.

As to “VAYKAIR (Amino acid sequence of motif sequence) [Mut 2]”, the NeutrAvidin-specific antibody production result in test [1] is listed as “excellent production ability”.

On to VSAKAIR (Mut3 peptide) [Mut 3], for which the NeutrAvidin-specific antibody production entry in test [1] is “an excellent antibody-producing ability is recognized unlike the case where each of the amino acid sequences of Mut 3 and Mut 4 is contained”.

For the substance VSYKAAR (Mut 4 peptide), in test [1], the NeutrAvidin-specific antibody production entry was “an excellent antibody-producing ability is recognized unlike the case where each of the amino acid sequences of Mut 3 and Mut 4 is contained”.

For the substance “[Amino acid sequence of PspA]-[VSYKAIR; SEQ ID NO: 1]-[VSYKAIR; SEQ ID NO: 1]-[VSYKAIR; SEQ ID NO: 1] [PspA-FL4]”, the “production ability of PspA-specific antibodies” value in the test with PspA-specific antibodies (1 μg in terms of PspA into base of tail Day 0 and Day 10, serum Day 17, ELISA) is reported as “remarkably improve”. Also, the “PspA-specific antibody titer compared with PspA and adjuvant (CpG oligodeoxynucleotide) administered at the same time” value with PspA-specific antibodies (fusion peptide without adjuvant, serum Day 17) is “remarkably higher”. Besides, the “body weight after administration of Streptococcus pneumoniae” value in the test on Streptococcus pneumoniae (C57BL/6 mice immunized Day 0 and Day 10 (1 μg as PspA), intranasal 5.1×10^7 cfu/mouse Day 18) is “no decrease in body weight was observed”. The infection protective ability entry in the test with Streptococcus pneumoniae (C57BL/6 mice, Streptococcus pneumoniae intranasal challenge) is on record as “strong infection protective ability”. In addition, the survival rate in the test on Streptococcus pneumoniae (after 10 days from the administration of Streptococcus pneumoniae, C57BL/6 mice) amounted to 100%.
